Here are results for 35 compounds from patent publication US20110053916A1 (Vertex Pharmaceuticals Incorporated, priority 2009, published 2011).

Molecules are shown by their SMILES. Counter-ions that a name gives are not always drawn.

The first test deals with T1, PknB (Mycobacterium tuberculosis, UniProt P9WI81).
T1 construct: made in house
T1 sequence (P9WI81 whole entry): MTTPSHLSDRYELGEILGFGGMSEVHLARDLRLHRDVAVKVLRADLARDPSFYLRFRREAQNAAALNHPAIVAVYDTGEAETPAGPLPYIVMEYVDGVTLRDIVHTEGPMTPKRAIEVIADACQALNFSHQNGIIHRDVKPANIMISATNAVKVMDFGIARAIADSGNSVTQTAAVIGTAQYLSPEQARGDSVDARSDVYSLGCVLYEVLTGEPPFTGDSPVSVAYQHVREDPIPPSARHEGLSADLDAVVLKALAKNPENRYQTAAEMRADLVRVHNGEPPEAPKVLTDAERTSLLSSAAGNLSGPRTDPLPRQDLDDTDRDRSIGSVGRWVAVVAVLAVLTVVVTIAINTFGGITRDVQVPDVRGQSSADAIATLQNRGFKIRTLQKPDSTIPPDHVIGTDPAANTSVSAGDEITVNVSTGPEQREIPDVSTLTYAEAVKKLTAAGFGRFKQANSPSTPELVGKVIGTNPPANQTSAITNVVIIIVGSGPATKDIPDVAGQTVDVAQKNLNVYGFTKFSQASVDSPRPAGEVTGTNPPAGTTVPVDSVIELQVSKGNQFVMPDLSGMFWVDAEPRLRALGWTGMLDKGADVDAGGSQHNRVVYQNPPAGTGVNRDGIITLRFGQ
Description: biochemical.
Conditions: not given
Set-up: species or system M. tuberculosis.
Compound `COC(=O)c1ccc(-c2ncc(Cl)c(Nc3cc(C4CC4)n[nH]3)n2)s1` [Compound 154, Methyl5-(5-chloro-4-(3-cyclopropyl-1H-pyrazol-5-ylamino)pyrimidin-2-yl)thiophene-2-carboxylate hydrochloride] had an inhibition constant (Ki) of 10 to 50 nM.

Staying with this test, now noted: 3 nM PknB, 6 uM GarA, 3 μM ATP, 30 min; competitive tight-binding fit; several symbols in a cell = repeat determinations.
In the case of `NS(=O)(=O)c1ccc(-c2ncc(C#CCO)c(Nc3cc(C4CC4)[nH]n3)n2)s1` [Compound 217, 5-(4-(5-Cyclopropyl-1H-pyrazol-3-ylamino)-5-(3-hydroxyprop-1-ynyl)pyrimidin-2-yl)thiophene-2-sulfonamide], the “Ki Values” is “A**, A*”.
Same read-out and setting: then `CS(=O)(=O)c1ccc(-c2nccc(Nc3cc(C4CC4)[nH]n3)n2)cc1` [Compound 15, N-(5-cyclopropyl-1H-pyrazol-3-yl)-2-(4-(methylsulfonyl)phenyl)pyrimidin-4-amine], with “A*, A”; and `NS(=O)(=O)c1ccc(-c2ncc(CCO)c(Nc3cc(C4CC4)[nH]n3)n2)s1` [Compound 239, 5-(4-(5-cyclopropyl-1H-pyrazol-3-ylamino)-5-(2-hydroxyethyl)pyrimidin-2-yl)thiophene-2-sulfonamide], with “A*, B**”.
Same read-out and setting: for `C#Cc1cnc(N2CC[C@H](NC(=O)OC(C)(C)C)C2)nc1Nc1cc(C2CC2)n[nH]1` [Compound 169, tert-butyl [[1-[4-[(5-cyclopropyl-2H-pyrazol-3-yl)amino]-5-ethynyl-pyrimidin-2-yl]pyrrolidin-3-yl]amino]formate] the value was “C, D”.

The same test, now with this note: 3 nM PknB, 6 uM GarA, 3 μM ATP, 30 min; competitive tight-binding fit; several symbols in a cell = repeat determinations; read-out: Ki Values.
As for `C=Cc1cnc(-c2ccc(S(N)(=O)=O)s2)nc1Nc1cc(C2CC2)[nH]n1` [Compound 209, 5-(4-(5-Cyclopropyl-1H-pyrazol-3-ylamino)-5-vinylpyrimidin-2-yl)thiophene-2-sulfonamide], the inhibition constant Ki fell in the range of 1 to 10 nM.
Still for that read-out and setting: then `NS(=O)(=O)c1cccc(-c2nccc(Nc3cc(C4CC4)[nH]n3)n2)c1` [Compound 28, 3-[4-[(5-cyclopropyl-1H-pyrazol-3-yl)amino]pyrimidin-2-yl]benzenesulfonamide], with 10 to 50 nM.
The same measure, in the same setting: for `Nc1ccc(-c2ccc(S(N)(=O)=O)s2)nc1Nc1cc(C2CC2)n[nH]1` [Compound 276, 5-[5-amino-6-[(5-cyclopropyl-2H-pyrazol-3-yl)amino]-2-pyridyl]thiophene-2-sulfonamide] the value was 1 to 10 nM; for `CC(=O)c1sc(-c2ncc(Cl)c(Nc3cc(C4CC4)[nH]n3)n2)nc1C` [Compound 297, 1-(2-(5-Chloro-4-(5-cyclopropyl-1H-pyrazol-3-ylamino)pyrimidin-2-yl)-4-methylthiazol-5-yl)ethanone], 10 to 50 nM.
Still for that read-out and setting: for `C#Cc1cnc(-c2ccc([C@@H](O)C(C)C)s2)nc1Nc1cc(C2CC2)n[nH]1` (stereo in doubt) [Compound 210, 1-[5-[4-[(5-cyclopropyl-2H-pyrazol-3-yl)amino]-5-ethynyl-pyrimidin-2-yl]-2-thienyl]-2-methyl-propan-1-ol] the value was 10 to 50 nM; for `Oc1cnc(-c2ccccc2)nc1Nc1cc(C2CC2)[nH]n1` [Compound 55, 4-(5-cyclopropyl-1H-pyrazol-3-ylamino)-2-phenylpyrimidin-5-ol], 1000 to 2000 nM; for `O=C(O)c1ccc(-c2ncc(Cl)c(Nc3cc(C4CC4)n[nH]3)n2)s1` [Compound 156, 5-(5-chloro-4-(3-cyclopropyl-1H-pyrazol-5-ylamino)pyrimidin-2-yl)thiophene-2-carboxylic acid], 50 to 100 nM.
In the case of `CC(C)(C)NS(=O)(=O)c1ccc(-c2nc(Nc3cc(C4CC4)[nH]n3)cc(C(=O)O)n2)s1` [Compound 278, 6-[(5-cyclopropyl-1H-pyrazol-3-yl)amino]-2-[5-(tert-butylsulfamoyl)-2-thienyl]-pyrimidine-4-carboxylic acid], the inhibitory constant (Ki) was in the range of 100 to 500 nM.
The same measure, in the same setting: for `C#Cc1cnc(-c2cccc(S(N)(=O)=O)c2)nc1Nc1cc(C2CC2)[nH]n1` [Compound 110, 3-(4-(5-cyclopropyl-1H-pyrazol-3-ylamino)-5-ethynylpyrimidin-2-yl)benzene sulfonamide] the value was 10 to 50 nM; for `NS(=O)(=O)c1ccc(-c2ncc(Cl)c(Nc3cc(C4CCCC4)[nH]n3)n2)s1` [Compound 235, 5-[5-chloro-4-[(5-cyclopentyl-1H-pyrazol-3-yl)amino]-pyrimidin-2-yl]thiophene-2-sulfonamide], 10 to 50 nM; for `NS(=O)(=O)C/C=C/c1nccc(Nc2cc(C3CC3)[nH]n2)n1` [Compound 54, 3-[4-[(5-cyclopropyl-1H-pyrazol-3-yl)amino]pyrimidin-2-yl]prop-2-ene-1-sulfonamide], 1000 to 2000 nM.
Still for that read-out and setting: then `CC(C)(C)NS(=O)(=O)c1ccc(-c2ncc(CO)c(Nc3cc(C4CC4)[nH]n3)n2)s1` [Compound 163, N-tert-butyl-5-(4-(5-cyclopropyl-1H-pyrazol-3-ylamino)-5-(hydroxymethyl)pyrimidin-2-yl)thiophene-2-sulfonamide], with 100 to 500 nM.
Take `CC(C)(C)NS(=O)(=O)c1ccc(-c2ncc(Cl)c(Nc3cc(C4CC4)[nH]n3)n2)cn1` [Compound 302, 5-[5-chloro-4-[(5-cyclopropyl-1H-pyrazol-3-yl)amino]-pyrimidin-2-yl]-N-tert-butyl-pyridine-2-sulfonamide]: the Ki lay within 10 to 50 nM.
On the same count and under the same terms, for `O=C(O)c1cccc(Nc2ncc(Cl)c(Nc3cc(C4CC4)[nH]n3)n2)c1` [Compound 73, 3-[[5-chloro-4-[(5-cyclopropyl-1H-pyrazol-3-yl)amino]-pyrimidin-2-yl]amino]benzoic acid] the value was 100 to 500 nM; for `C#Cc1cnc(-c2ccc(S(C)(=O)=O)cc2)nc1Nc1cc(C2CC2)[nH]n1` [Compound 153, N-(5-Cyclopropyl-1H-pyrazol-3-yl)-5-ethynyl-2-(4-(methylsulfonyl)phenyl)pyrimidin-4-amine], 10 to 50 nM; for `CC#Cc1cnc(-c2ccccc2)nc1Nc1cc(C2CC2)n[nH]1` [Compound 9, N-(5-cyclopropyl-1H-pyrazol-3-yl)-2-phenyl-5-(prop-1-ynyl)pyrimidin-4-amine], over 4000 nM.
`NS(=O)(=O)c1ccc(-c2ncc(Cl)c(Nc3cc(-c4cccs4)[nH]n3)n2)s1` [Compound 220, 5-[5-chloro-4-[[5-(2-thienyl)-1H-pyrazol-3-yl]amino]-pyrimidin-2-yl]thiophene-2-sulfonamide]: the Ki was over 4000 nM.
Still for that read-out and setting: then `CCCc1cnc(N2CCN(C)CC2)nc1Nc1cc(C2CC2)[nH]n1` [Compound 72, N-(5-cyclopropyl-1H-pyrazol-3-yl)-2-(4-methylpiperazin-1-yl)-5-propyl-pyrimidin-4-amine], with over 4000 nM; and `C#Cc1cnc(C2=CCNCC2)nc1Nc1cc(C2CC2)[nH]n1` [Compound 249, N-(5-cyclopropyl-1H-pyrazol-3-yl)-5-ethynyl-2-(1,2,3,6-tetrahydropyridin-4-yl)pyrimidin-4-amine], with over 4000 nM; and `CC(=O)Nc1cnc(-c2ccccc2)nc1Nc1cc(C2CC2)n(C(C)=O)n1` [Compound 3, N-[4-[(1-acetyl-5-cyclopropyl-pyrazol-3-yl)amino]-2-phenyl-pyrimidin-5-yl]acetamide], with over 4000 nM.
For `NC(=O)c1ccc(-c2ncc(Cl)c(Nc3cc(C4CC4)[nH]n3)n2)s1` [compound 131, 5-(5-Chloro-4-(5-cyclopropyl-1H-pyrazol-3-ylamino)pyrimidin-2-yl)thiophene-2-carboxamide], the inhibitory constant (Ki) lay in the range of 1 to 10 nM.
As to `CC(C)(C)NS(=O)(=O)c1ccc(-c2ncc(/C=C/CO)c(Nc3cc(C4CC4)[nH]n3)n2)s1` [Compound 218, (E)-N-tert-butyl-5-(4-(5-cyclopropyl-1H-pyrazol-3-ylamino)-5-(3-hydroxyprop-1-enyl)pyrimidin-2-yl)thiophene-2-sulfonamide], the Ki was in the range of 50 to 100 nM.
Still for that read-out and setting: then `NS(=O)(=O)c1ccc(-c2ncc(Cl)c(Nc3cc(C4CCNC4)n[nH]3)n2)s1` (centres unmarked) [Compound 263, 5-[5-chloro-4-[(5-pyrrolidin-3-yl-2H-pyrazol-3-yl)amino]-pyrimidin-2-yl]thiophene-2-sulfonamide], with over 4000 nM; and `O=C(O)C(O)c1ccc(-c2ncc(Cl)c(Nc3cc(C4CC4)[nH]n3)n2)s1` (centres unmarked) [Compound 219, 2-(5-(5-chloro-4-(5-cyclopropyl-1H-pyrazol-3-ylamino)pyrimidin-2-yl)thiophen-2-yl)-2-hydroxyacetic acid], with 100 to 500 nM; and `C#Cc1cnc(-c2ccc(S(=O)(=O)NCCNC(C)=O)s2)nc1Nc1cc(C2CC2)[nH]n1` [Compound 181, N-[2-[[5-[4-[(5-cyclopropyl-1H-pyrazol-3-yl)amino]-5-ethynyl-pyrimidin-2-yl]-2-thienyl]sulfonylamino]ethyl]acetamide], with 10 to 50 nM.
Same read-out and setting: for `N#CCc1ccc(-c2ncc(Cl)c(Nc3cc(C4CC4)n[nH]3)n2)s1` [Compound 143, 2-(5-(5-chloro-4-(3-cyclopropyl-1H-pyrazol-5-ylamino)pyrimidin-2-yl)thiophen-2-yl)acetonitrile] the value was 1 to 10 nM.
The same measure, in the same setting: for `Cc1cnc(-c2ccc(S(N)(=O)=O)s2)nc1Nc1cc(C2CC2)n(C)n1` [Compound 150, 5-[4-[(5-cyclopropyl-1-methyl-pyrazol-3-yl)amino]-5-methyl-pyrimidin-2-yl]thiophene-2-sulfonamide] the value was over 4000 nM; for `Cc1cnc(-c2cccc(S(N)(=O)=O)c2)nc1Nc1cc(C2CC2)[nH]n1` [Compound 31, 3-[4-[(5-cyclopropyl-1H-pyrazol-3-yl)amino]-5-methyl-pyrimidin-2-yl]benzenesulfonamide], 10 to 50 nM; for `CC(=O)NCCNS(=O)(=O)c1ccc(-c2ncc(Br)c(Nc3cc(C4CC4)[nH]n3)n2)s1` [Compound 166, N-(2-(5-(5-bromo-4-(5-cyclopropyl-1H-pyrazol-3-ylamino)pyrimidin-2-yl)thiophene-2-sulfonamido)ethyl)acetamide], 10 to 50 nM.
For the compound `O=[N+]([O-])c1cnc(-c2ccccc2)nc1Nc1cc(C2CC2)[nH]n1` [Compound 6, N-(5-cyclopropyl-1H-pyrazol-3-yl)-5-nitro-2-phenylpyrimidin-4-amine], the inhibitory constant (Ki) was over 4000 nM.
